The values below come from US9481676B2, “Azepino[4,5-B]indoles and methods of use” (Medivation Technologies, Inc., priority 2008, dated 2016).

The structures appear in SMILES notation.

Experiment [1] deals with T1, human recombinant serotonin (5-Hydroxytryptamine) 5-HT6 receptor (Homo sapiens, UniProt P50406).
T1 construct: expressed in transfected cells; host or cells: human HeLa cells
As to the kind of experiment: Serotonin 5-HT6 radioligand binding ([3H]LSD). To be noted: compound at 1 μM; read-out: Serotonin (1 μM) 5-HT6, percent inhibition of specific binding. On the procedure:
To evaluate in radioligand binding assays the activity of compounds of the invention, human recombinant serotonin (5-Hydroxytryptamine) 5-HT6 receptor expressed in human HeLa cells (Monsma, F. J. Jr. et al., Mol. Pharmacol. 43:320, 1993) in a modified Tris-HCl buffer (50 mM Tris-HCl, pH 7.4, 150 mM NaCl, 2 mM Ascorbic Acid, 0.001% BSA) was used. Compounds of the invention were incubated with 1.5 nM [3H]Lysergic acid diethylamide (LSD) for 120 min. at 37° C. Non-specific binding was estimated in the presence of 5 μM Serotonin (5-HT). Receptor proteins were filtered and washed, the filters were then counted to determine [3H]LSD specifically bound. Compounds were screened at 1 μM or lower, using 1% DMSO as vehicle. Biochemical assay results are presented as the percent inhibition of specific binding in Table 6.

In experiment [2] the target is T2, human recombinant dopamine D2L receptor (Homo sapiens, UniProt P14416).
T2 construct: expressed in transfected cells; host or cells: CHO cells
As to the kind of experiment: Dopamine D2L radioligand binding ([3H]Spiperone). To be noted: compound at 1 μM; read-out: Dopamine (1 μM) D2L, percent inhibition of specific binding. On the procedure: To evaluate in radioligand binding assays the activity of compounds of the invention, human recombinant dopamine D2L receptor expressed in Chinese hamster ovary (CHO) cells (Grandy, D. K. et al. Proc. Natl. Acad. Sci. USA. 86:9762, 1989; Hayes, G. et al., Mol. Endocrinol. 6:920, 1992) in a modified Tris-HCl buffer (50 mM Tris-HCl, pH 7.4, 1.4 mM Ascorbic Acid, 0.001% BSA, 150 mM NaCl) was used. Compounds of the invention were incubated with 0.16 nM [^3H]Spiperone for 120 min. at 25° C. Non-specific binding was estimated in the presence of 10 μM Haloperidol. Receptor proteins were filtered and washed, the filters were then counted to determine [^3H]Spiperone specifically bound. Compounds were screened at 1 μM or lower, using 1% DMSO as vehicle. Biochemical assay results are presented as the percent inhibition of specific binding in Table 5.

For experiment [3], the target named is T3, human recombinant serotonin (5-Hydroxytryptamine) 5-HT2C receptor (Homo sapiens, UniProt P28335).
T3 construct: expressed in transfected cells; host or cells: CHO-K1 cells
T3 sequence (P28335 33-458): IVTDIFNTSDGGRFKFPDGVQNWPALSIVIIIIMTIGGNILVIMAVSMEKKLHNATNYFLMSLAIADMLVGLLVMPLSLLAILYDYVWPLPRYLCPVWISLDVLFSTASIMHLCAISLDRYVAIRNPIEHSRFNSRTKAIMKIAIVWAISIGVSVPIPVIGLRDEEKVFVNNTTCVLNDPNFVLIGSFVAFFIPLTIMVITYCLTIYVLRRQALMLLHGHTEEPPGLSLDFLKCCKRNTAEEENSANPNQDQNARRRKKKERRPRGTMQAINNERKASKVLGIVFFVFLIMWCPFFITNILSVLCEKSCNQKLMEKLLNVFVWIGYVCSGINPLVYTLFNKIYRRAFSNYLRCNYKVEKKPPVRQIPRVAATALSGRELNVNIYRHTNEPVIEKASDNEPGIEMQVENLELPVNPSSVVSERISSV
As to the kind of experiment: Serotonin 5-HT2C radioligand binding ([3H]Mesulergine). To be noted: compound at 1 μM; read-out: Serotonin (1 μM) 5-HT2C, percent inhibition of specific binding. The protocol: To evaluate in radioligand binding assays the activity of compounds of the invention, human recombinant serotonin (5-Hydroxytryptamine) 5-HT2C receptor expressed in Chinese hamster ovary (CHO-K1) cells (Wolf, W. A. and Schutz, J. S., J. Neurochem. 69:1449, 1997) in a modified Tris-HCl buffer (50 mM Tris-HCl, pH 7.4, 0.1% Ascorbic Acid, 10 μM Pargyline) was used. Compounds of the invention were incubated with 1 nM [^3H]Mesulergine for 60 min. at 25° C. Non-specific binding was estimated in the presence of 1 μM Mianserin. Receptor proteins were filtered and washed, the filters were then counted to determine [^3H]Mesulergine specifically bound. Compounds were screened at 1 μM or lower, using 1% DMSO as vehicle. Biochemical assay results are presented as the percent inhibition of specific binding in Table 6.

The target in experiment [4] is T4, human recombinant histamine H1 receptor (Homo sapiens, UniProt P35367).
T4 construct: expressed in transfected cells; host or cells: CHO cells
As to the kind of experiment: Histamine H1 radioligand binding ([3H]Pyrilamine). To be noted: compound at 1 μM; read-out: Histamine Binding (1 μM) H1, percent inhibition of specific binding. The protocol:
To evaluate in radioligand binding assays the activity of compounds of the invention, human recombinant histamine H1 receptor expressed in Chinese hamster ovary (CHO) cells (De Backer, M. D. et al., Biochem. Biophys. Res. Comm. 197(3):1601, 1993) in a modified Tris-HCl buffer (50 mM Tris-HCl, pH 7.4, 2 mM MgCl2, 100 mM NaCl, 250 mM Sucrose) was used. Compounds of the invention were incubated with 1.2 nM [^3H]Pyrilamine for 180 min. at 25° C. Non-specific binding was estimated in the presence of 1 μM pyrilamine. Receptor proteins were filtered and washed, the filters were then counted to determine [^3H]Pyrilamine specifically bound. Compounds were screened at 1 μM or lower, using 1% DMSO as vehicle. Biochemical assay results are presented as the percent inhibition of specific binding in Table 6.

The target of experiment [5] is T5, human recombinant serotonin (5-Hydroxytryptamine) 5-HT2A receptor (Homo sapiens, UniProt P28223).
T5 construct: expressed in transfected cells; host or cells: CHO-K1 cells
The experiment can be described thus: Serotonin 5-HT2A radioligand binding ([3H]Ketanserin). To be noted: compound at 1 μM; read-out: Serotonin (1 μM) 5-HT2A, percent inhibition of specific binding. The protocol:
To evaluate in radioligand binding assays the activity of compounds of the invention, human recombinant serotonin (5-Hydroxytryptamine) 5-HT2A receptor expressed in Chinese hamster ovary (CHO-K1) cells (Bonhaus, D. W. et al. Br. J. Pharmacol. 115:622, 1995; Saucier, C. and Albert, P. R., J. Neurochem. 68:1998, 1997) in a 50 mM Tris-HCl buffer, pH 7.4, was used. Compounds of the invention were incubated with 0.5 nM [^3H]Ketanserin for 60 min. at 25° C. Non-specific binding was estimated in the presence of 1 μM Mianserin. Receptor proteins were filtered and washed, the filters were then counted to determine [^3H]Ketanserin specifically bound. Compounds were screened at 1 μM or lower, using 1% DMSO as vehicle. Biochemical assay results are presented as the percent inhibition of specific binding in Table 6.

The target of experiment [6] is T6, human recombinant histamine H2 receptor (Homo sapiens, UniProt P25021).
T6 construct: expressed in transfected cells; host or cells: CHO-K1 cells
The experiment can be described thus: Histamine H2 radioligand binding ([125I]Aminopotentidine). To be noted: compound at 1 μM; read-out: Histamine Binding (1 μM) H2, percent inhibition of specific binding. On the procedure:
To evaluate in radioligand binding assays the activity of compounds of the invention, human recombinant histamine H2 receptor expressed in Chinese hamster ovary (CHO) K1 cells (Ruat, M., Proc. Natl. Acad. Sci. USA. 87(5):1658, 1990) in a 50 mM Phosphate buffer, pH 7.4 was used. Compounds of the invention were incubated with 0.1 nM [^125I]Aminopotentidine for 120 min. at 25° C. Non-specific binding was estimated in the presence of 3 μM Tiotidine. Receptor proteins were filtered and washed, the filters were then counted to determine [^125I]Aminopotentidine specifically bound. Compounds were screened at 1 μM or lower, using 1% DMSO as vehicle. Biochemical assay results are presented as the percent inhibition of specific binding in Table 6.

Experiment [7] has as its system cells treated with the cell toxin ionomycin. To be noted: cited from earlier work.
In experiment [8] the test system is neurite outgrowth and neurogenesis. To be noted: cited from earlier work.
The next experiment concerns brain cells (neurons). To be noted: preclinical models of Alzheimer's disease and Huntington's disease; cited from earlier work.
[9] abbreviates: after treatment with the cell toxin ionomycin.

T1 sequence (P50406 whole entry): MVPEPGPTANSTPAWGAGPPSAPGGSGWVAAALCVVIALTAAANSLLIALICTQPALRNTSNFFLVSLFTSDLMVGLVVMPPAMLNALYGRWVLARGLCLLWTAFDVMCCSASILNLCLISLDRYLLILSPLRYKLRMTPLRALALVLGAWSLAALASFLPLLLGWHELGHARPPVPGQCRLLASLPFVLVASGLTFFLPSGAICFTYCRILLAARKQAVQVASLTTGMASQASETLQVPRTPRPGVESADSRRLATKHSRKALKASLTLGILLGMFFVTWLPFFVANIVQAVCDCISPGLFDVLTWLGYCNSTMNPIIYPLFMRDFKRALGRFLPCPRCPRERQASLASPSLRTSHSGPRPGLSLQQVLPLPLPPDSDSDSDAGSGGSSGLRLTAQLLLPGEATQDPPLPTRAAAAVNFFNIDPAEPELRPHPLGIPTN
T4 sequence (P35367 whole entry): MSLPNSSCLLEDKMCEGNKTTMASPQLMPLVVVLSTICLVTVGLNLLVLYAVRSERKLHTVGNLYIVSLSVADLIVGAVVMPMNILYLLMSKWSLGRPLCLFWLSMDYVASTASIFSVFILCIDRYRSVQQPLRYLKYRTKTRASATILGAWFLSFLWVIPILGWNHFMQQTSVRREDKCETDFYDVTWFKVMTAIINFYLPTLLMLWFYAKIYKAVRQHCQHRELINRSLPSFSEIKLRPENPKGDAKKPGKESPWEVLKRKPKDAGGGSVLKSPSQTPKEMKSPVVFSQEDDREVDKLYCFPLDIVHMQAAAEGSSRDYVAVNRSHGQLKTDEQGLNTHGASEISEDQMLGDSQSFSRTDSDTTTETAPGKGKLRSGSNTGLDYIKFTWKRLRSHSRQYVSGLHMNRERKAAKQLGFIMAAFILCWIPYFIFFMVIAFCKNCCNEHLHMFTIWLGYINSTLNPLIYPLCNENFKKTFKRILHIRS
T6 sequence (P25021 whole entry): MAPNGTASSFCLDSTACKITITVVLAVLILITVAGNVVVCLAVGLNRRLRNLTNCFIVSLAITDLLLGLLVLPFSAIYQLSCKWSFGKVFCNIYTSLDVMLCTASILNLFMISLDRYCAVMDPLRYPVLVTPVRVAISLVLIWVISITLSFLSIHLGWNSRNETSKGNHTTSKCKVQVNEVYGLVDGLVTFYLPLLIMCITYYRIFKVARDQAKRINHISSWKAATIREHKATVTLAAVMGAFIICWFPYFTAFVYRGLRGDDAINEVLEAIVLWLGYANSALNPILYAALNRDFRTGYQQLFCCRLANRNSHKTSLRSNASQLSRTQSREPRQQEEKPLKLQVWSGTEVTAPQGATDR
T2 sequence (P14416 whole entry): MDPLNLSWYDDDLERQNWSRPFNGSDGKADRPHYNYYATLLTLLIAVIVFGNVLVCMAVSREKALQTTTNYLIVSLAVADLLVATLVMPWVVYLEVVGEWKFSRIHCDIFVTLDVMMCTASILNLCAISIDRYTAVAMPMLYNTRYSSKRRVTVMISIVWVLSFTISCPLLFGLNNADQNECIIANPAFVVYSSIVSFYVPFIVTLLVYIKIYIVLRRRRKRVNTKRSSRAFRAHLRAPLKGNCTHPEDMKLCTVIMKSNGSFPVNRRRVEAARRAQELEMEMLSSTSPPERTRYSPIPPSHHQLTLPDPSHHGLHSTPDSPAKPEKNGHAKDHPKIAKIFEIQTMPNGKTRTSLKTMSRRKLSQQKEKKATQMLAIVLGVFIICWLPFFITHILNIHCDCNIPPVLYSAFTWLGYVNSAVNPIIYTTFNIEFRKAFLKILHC
T5 sequence (P28223 whole entry): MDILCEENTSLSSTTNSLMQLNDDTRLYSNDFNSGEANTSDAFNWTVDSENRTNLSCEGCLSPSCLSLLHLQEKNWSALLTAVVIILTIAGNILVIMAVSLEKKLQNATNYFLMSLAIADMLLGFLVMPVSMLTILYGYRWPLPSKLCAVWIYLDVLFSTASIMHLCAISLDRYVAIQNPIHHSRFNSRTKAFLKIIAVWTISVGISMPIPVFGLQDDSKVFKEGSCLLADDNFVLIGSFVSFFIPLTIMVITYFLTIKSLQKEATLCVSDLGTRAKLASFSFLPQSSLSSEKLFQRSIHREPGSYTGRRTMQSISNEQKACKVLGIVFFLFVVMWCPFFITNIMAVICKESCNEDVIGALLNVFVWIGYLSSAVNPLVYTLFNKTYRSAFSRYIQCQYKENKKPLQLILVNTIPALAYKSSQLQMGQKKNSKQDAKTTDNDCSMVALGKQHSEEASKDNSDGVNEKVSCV

Regarding `COc1ccc(C#Cn2c3c(c4cc(Cl)ccc42)CCN(C)CC3)cc1F` [Compound No. 283, 9-chloro-6-((3-fluoro-4-methoxyphenyl)ethynyl)-3-methyl-1,2,3,4,5,6-hexahydroazepino[4,5-b]indole], the inhibition at 1 µM in [1] was 40%; in [2] it was 12%; in experiment [3] it was 100%; in experiment [4] it was 12%; in [5], 90%; in experiment [6], 83%.

`COc1ccc(/C(C)=C/n2c3c(c4cc(Cl)ccc42)CCN(C)CC3)cc1F` [Compound No. 157, (E)-9-chloro-6-(2-(3-fluoro-4-methoxyphenyl)prop-1-enyl)-1,2,3,4,5,6-hexahydro-3-methylazepino[4,5-b]indole]: the inhibition at 1 µM in [1] is 78%; in experiment [2], 24%; in experiment [3] it was 101%; in experiment [4], 68%; in experiment [5], 98%; in [6], 93%.

As for `C/C(=C\n1c2c(c3cc(C)ccc31)CCN(C)CC2)c1cccnc1` [Compound No. 247, (E)-3,9-dimethyl-6-(2-(pyridin-3-yl)prop-1-enyl)-1,2,3,4,5,6-hexahydroazepino[4,5-b]indole], the inhibition at 1 µM is 74% in experiment [1]; 8% in [2]; 99% in [3]; 82% in experiment [4]; 98% in experiment [5]; 36% in [6].

Take `C/C(=C\n1c2c(c3cc(Cl)ccc31)CCN(C)CC2)c1ccccc1F` [Compound No. 243, (E)-9-chloro-6-(2-(2-fluorophenyl)prop-1-enyl)-3-methyl-1,2,3,4,5,6-hexahydroazepino[4,5-b]indole]: the inhibition at 1 µM in [1] came to 99%; in experiment [2], 32%; in [3], 102%; in [4] it was 93%; in experiment [5] it was 98%; in experiment [6], 84%.

In the case of `Cc1ccc2c(c1)c1c(n2CCc2ccc(C)nc2)CCN(C)C1` [Dimebon, dimebon], in [7] (setting [9]), the mitochondrial function result is on record as “improved mitochondrial function” and the “number of surviving cells” value was “increased the number of surviving cells”. In [7] (setting of cellular stress), the “mitochondrial function of cells” value is “improve the mitochondrial function of cells in the setting of cellular stress with very high potency”. Besides, the “neurite outgrowth and neurogenesis” value in [8] was “promote neurite outgrowth and neurogenesis”. Besides, the “death of brain cells (neurons)” value with brain cells (neurons) is given as “inhibit the death of brain cells (neurons)”.

A word on the inhibition: it is the change of the read-out against control, counted positive when it falls.
